In patent US20160168118A1, “N-(5-QUINOLIN-6-YL)PYRIDIN-3-YL) BENZSULFAMIDE DERIVATIVES, PREPARATION METHOD AND THERAPEUTIC USE THEREOF” (SECOND MILITARY MEDICAL UNIVERSITY, PLA, priority 2012, published 2016):
In brackets after ≈: the same amount, converted by molar mass. Where two headings read alike, the source gives them in different places.

Assays:
[1] = test system: U87MG (human brain star glioblastoma); experiment: MTT assay, U87MG; assay type: cell-based; conditions: U-87 MG, 72 h
Method: (§1) 1. Sample preparation: After dissolved with DMSO (Merck), PBS (−) was added to make 1000 μg/ml solution or a uniform suspension, and then diluted with PBS (−) containing the DMSO. Doxorubicin (DOX) was used as the positive control drug.
(§2) 2. Cell Line • 1) A549 (human lung cancer cells); 2) HCT116 (human colon cancer cells); 3) HepG2 (human hepatoma cells); 4) ZR-75-30 (human breast cancer cells); 5) U87MG (human brain star glioblastoma)
(§3) DMEM+5-10% FBS+double resistant
(§4) MTT assay. 100 μl cell suspension was added at a concentration of 4˜5×10^4 cells/ml to each well of a 96-well plate, and was set at 37° C., 5% CO2 in the incubator. After 24 h, the sample solution was added, 10 μl/hole, double wells were set, 37° C., acting for 72 h at 5% CO2. […] of 5 mg/ml was added to each well, the dissolving liquid was added after acted for 4 h, 100 μl/hole, kept in the incubator, and read 570 nm OD with MK-2 automatic microplate reader after dissolution.

[2] = molecular target: PI3Kγ (Homo sapiens, UniProt P48736); experiment: ADP-Glo Luminescent Kinase Assay, PI3Kγ; assay type: biochemical; conditions: read-out: IC50 on PI3K gamma
PI3Kγ, sequence (P48736 whole entry, species assumed): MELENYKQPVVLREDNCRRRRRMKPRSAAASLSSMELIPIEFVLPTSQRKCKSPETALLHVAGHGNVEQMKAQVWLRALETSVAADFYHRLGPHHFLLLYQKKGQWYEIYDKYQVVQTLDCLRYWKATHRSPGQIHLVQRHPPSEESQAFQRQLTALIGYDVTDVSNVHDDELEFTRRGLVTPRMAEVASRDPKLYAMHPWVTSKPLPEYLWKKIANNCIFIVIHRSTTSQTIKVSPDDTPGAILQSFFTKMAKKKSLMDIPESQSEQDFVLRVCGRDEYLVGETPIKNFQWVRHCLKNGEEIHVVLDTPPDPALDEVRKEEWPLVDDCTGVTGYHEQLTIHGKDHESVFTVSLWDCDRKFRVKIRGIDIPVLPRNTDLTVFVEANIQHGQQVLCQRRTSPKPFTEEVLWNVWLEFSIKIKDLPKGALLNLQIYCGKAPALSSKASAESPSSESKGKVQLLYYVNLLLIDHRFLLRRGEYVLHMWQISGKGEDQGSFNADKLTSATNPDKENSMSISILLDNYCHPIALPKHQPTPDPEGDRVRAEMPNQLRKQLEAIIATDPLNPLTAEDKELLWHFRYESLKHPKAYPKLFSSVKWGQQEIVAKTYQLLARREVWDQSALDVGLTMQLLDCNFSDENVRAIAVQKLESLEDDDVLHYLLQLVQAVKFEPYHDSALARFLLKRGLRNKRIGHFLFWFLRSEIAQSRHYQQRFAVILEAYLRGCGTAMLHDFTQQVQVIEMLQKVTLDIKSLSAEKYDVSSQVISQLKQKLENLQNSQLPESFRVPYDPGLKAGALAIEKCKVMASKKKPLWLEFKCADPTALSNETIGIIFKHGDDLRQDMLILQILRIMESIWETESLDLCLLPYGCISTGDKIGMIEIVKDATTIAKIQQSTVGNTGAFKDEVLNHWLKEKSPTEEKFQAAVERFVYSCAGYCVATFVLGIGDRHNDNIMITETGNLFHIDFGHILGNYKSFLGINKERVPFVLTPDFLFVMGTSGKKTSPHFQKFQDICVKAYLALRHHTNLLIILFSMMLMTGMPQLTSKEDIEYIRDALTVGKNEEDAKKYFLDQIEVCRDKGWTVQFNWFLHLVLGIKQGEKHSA

[3] = molecular target: PI3Kα (Homo sapiens, UniProt P42336); experiment: Kinase-Glo Luminescent Kinase Assay, PI3Kα; assay type: biochemical
PI3Kα, sequence (P42336 whole entry, species assumed): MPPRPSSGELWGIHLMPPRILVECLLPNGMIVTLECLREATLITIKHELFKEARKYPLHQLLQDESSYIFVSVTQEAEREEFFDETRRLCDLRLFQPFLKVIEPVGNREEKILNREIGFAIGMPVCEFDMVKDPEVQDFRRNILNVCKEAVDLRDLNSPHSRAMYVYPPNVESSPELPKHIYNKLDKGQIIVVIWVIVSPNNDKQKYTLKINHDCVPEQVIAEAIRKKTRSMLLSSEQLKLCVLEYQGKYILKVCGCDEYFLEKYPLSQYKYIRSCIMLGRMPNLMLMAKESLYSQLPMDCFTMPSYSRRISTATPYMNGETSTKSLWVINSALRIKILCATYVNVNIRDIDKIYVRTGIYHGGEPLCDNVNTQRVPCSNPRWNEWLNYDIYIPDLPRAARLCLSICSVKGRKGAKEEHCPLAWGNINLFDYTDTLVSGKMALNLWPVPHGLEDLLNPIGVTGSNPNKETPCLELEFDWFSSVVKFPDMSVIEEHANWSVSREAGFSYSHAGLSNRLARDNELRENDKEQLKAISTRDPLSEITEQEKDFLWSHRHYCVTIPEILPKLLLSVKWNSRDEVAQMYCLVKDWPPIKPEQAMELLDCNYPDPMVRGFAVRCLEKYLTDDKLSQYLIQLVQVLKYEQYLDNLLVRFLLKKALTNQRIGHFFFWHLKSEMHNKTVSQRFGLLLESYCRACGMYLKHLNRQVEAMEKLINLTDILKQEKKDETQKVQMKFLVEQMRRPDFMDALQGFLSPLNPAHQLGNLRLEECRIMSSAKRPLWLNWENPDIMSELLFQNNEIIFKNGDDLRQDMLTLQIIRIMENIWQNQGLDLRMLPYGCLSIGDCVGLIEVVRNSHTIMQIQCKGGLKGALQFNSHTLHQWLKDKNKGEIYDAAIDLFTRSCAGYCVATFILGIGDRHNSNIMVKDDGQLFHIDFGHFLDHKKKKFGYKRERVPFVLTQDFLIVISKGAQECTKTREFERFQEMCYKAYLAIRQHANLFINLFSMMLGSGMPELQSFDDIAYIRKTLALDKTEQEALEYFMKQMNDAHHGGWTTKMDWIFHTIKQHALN
PI3Kα, sequence (P27986 whole entry partner, species assumed): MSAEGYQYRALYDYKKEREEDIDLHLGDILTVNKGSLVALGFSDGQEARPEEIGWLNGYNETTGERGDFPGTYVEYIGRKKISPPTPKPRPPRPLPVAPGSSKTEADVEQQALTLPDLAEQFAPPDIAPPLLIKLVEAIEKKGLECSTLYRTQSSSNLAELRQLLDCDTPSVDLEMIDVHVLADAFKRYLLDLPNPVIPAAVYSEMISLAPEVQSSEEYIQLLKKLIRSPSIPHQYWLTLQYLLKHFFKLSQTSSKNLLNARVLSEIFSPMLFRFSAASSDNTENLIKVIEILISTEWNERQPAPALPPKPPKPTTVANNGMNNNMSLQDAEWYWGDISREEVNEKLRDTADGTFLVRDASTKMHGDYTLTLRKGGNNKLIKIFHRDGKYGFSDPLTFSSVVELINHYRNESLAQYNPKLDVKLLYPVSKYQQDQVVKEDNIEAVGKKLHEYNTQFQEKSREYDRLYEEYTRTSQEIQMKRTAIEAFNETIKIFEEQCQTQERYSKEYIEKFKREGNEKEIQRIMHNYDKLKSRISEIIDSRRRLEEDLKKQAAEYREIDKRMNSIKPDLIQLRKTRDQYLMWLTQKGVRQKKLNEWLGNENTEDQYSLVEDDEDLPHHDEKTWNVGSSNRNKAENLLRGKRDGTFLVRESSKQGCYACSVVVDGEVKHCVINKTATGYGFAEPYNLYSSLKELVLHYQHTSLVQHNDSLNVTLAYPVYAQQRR

[4] = molecular target: PI3Kβ (Homo sapiens, UniProt P42338); experiment: ADP-Glo Luminescent Kinase Assay, PI3Kβ; assay type: biochemical; conditions: read-out: IC50 on PI3K beta
PI3Kβ, sequence (P42338 whole entry, species assumed): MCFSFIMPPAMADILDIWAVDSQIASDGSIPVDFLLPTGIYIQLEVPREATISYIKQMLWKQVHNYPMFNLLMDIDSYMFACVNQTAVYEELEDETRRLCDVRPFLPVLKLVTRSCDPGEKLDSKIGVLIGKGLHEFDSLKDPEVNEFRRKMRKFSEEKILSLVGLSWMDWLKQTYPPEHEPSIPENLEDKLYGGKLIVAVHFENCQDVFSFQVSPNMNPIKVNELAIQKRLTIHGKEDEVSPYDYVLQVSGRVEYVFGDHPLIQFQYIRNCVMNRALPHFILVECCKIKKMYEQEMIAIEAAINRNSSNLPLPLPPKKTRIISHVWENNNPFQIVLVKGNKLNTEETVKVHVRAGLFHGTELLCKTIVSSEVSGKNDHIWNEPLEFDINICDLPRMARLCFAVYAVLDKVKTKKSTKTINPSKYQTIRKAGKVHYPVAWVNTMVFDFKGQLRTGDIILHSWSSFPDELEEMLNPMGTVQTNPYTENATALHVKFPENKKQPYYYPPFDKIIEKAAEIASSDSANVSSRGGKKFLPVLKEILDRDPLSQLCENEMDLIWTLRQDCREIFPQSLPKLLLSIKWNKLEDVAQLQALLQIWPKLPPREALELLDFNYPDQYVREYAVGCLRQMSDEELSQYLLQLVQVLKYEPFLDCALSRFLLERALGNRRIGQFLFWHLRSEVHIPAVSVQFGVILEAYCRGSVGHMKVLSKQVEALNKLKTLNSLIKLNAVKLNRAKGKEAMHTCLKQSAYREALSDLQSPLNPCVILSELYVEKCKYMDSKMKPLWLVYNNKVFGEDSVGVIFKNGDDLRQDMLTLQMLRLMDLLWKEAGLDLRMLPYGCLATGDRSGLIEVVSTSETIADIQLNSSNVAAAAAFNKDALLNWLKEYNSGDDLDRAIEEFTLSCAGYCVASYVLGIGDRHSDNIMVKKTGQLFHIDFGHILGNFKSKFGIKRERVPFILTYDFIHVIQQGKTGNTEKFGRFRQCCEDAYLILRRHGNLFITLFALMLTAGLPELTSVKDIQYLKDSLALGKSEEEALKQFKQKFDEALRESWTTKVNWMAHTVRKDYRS
PI3Kβ, sequence (P27986 whole entry partner, species assumed): as the sequence (P27986 whole entry partner, species assumed) above

[5] = test system: A549 (human lung cancer cells); experiment: MTT assay, A549; assay type: cell-based; conditions: 72 h
Method: as §1, §2, §3, §4

[6] = test system: ZR-75-30 (human breast cancer cells); experiment: MTT assay, ZR-75-30; assay type: cell-based; conditions: 72 h
Method: as §1, §2, §3, §4

[7] = test system: HCT116 (human colon cancer cells); experiment: MTT assay, HCT116; assay type: cell-based; conditions: HCT-116, 72 h
[8] = molecular target: PI3K delta (Homo sapiens, UniProt O00329); experiment: Kinase-Glo Luminescent Kinase Assay, PI3K delta; assay type: biochemical
PI3K delta, sequence (O00329 whole entry): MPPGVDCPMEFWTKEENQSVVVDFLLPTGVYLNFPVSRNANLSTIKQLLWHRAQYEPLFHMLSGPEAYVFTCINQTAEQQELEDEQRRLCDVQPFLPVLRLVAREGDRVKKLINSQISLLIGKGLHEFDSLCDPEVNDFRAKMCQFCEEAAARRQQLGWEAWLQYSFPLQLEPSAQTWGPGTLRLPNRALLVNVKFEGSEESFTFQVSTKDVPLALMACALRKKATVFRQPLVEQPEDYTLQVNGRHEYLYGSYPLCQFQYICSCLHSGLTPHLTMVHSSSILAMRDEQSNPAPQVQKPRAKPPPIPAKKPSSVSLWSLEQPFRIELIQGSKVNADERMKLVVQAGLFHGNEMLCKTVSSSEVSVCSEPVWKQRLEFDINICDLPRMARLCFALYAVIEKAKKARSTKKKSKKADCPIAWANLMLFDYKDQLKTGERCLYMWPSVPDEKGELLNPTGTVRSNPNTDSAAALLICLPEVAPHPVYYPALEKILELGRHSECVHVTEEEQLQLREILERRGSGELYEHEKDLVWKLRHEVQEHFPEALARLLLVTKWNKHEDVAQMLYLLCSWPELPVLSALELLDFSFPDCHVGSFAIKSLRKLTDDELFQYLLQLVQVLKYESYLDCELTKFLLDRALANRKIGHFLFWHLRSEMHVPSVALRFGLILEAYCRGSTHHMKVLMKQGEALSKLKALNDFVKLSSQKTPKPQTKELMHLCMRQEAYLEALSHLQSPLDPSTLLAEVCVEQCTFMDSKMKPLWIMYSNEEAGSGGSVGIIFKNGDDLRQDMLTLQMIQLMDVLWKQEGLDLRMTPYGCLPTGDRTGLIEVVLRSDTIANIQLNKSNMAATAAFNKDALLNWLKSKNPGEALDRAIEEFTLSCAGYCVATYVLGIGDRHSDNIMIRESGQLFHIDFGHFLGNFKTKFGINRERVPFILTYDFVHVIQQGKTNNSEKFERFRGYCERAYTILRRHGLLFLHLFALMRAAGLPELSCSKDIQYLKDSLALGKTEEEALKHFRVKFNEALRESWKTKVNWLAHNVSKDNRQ
PI3K delta, sequence (P27986 whole entry partner): as the sequence (P27986 whole entry partner, species assumed) above

[9] = test system: HepG2 (human hepatoma cells); experiment: MTT assay, HepG2; assay type: cell-based; conditions: 72 h
Method: as §1, §2, §3, §4

[10] = molecular target: mTOR (Homo sapiens, UniProt P42345); experiment: Lance Ultra Assay, mTOR; assay type: biochemical
[11] = test system: PC3; experiment: NCI cytotoxicity test, PC3; assay type: cell-based; conditions: Homo sapiens, PC-3
Excerpt: (§5) Cytotoxicity Test of Compound 9, 10 and 17 on 60 Kinds of Human Cancer Cell Lines from the US National Cancer Institute

[12] = test system: OVCAR3; experiment: NCI cytotoxicity test, OVCAR3; assay type: cell-based; conditions: Homo sapiens, OVCAR-3
Excerpt: as §5

[13] = test system: SN12C; experiment: NCI cytotoxicity test, SN12C; assay type: cell-based; conditions: Homo sapiens
Excerpt: as §5

[14] = test system: COLO205; experiment: NCI cytotoxicity test, COLO205; assay type: cell-based; conditions: Homo sapiens, COLO 205
Excerpt: as §5

[15] = test system: A549; experiment: NCI cytotoxicity test, A549; assay type: cell-based; conditions: Homo sapiens
Excerpt: as §5

[16] = test system: MCF7; experiment: NCI cytotoxicity test, MCF7; assay type: cell-based; conditions: Homo sapiens
Excerpt: as §5

[17] = test system: five human tumor cells; experiment: MTT assay, five human tumor cells (summary in words); assay type: cell-based; conditions: A549, HCT116, HepG2, ZR-75-30, U87MG
Method: as §1, §2, §3, §4

[18] = test system: SF539; experiment: NCI cytotoxicity test, SF539; assay type: cell-based; conditions: Homo sapiens, SF-539
Excerpt: as §5

[19] = test system: 60 kinds of human cancer cell lines; experiment: Cytotoxicity test on 60 kinds of human cancer cell lines from the US National Cancer Institute; assay type: cell-based
Excerpt: as §5

[20] = test system: human lung carcinoma A549 xenografts; experiment: In vivo efficacy on human lung carcinoma A549 xenografts in nude mice; set-up: species or system BALB/C nude mice; conditions: ig, GSK2126458 3 mg/kg, compound 9 10 mg/kg
Excerpt: Strain: BALB/C nude mice (SPF grade), Source: Shanghai Slac laboratory animal limited liability company, the production license number: SCXK (Shanghai) 2007-0005, the using license number: SYXK (Shanghai) 2009-0068, gender: male, weight: 18-20 g, the number of animals per group: 6.
A549 solid tumors which were well-grown were taken, cut to uniform bits of about 3 mm size under aseptic condition, every bit was inoculated to each mouse subcutaneously in the right armpit with trocar, and randomly divided into three groups, each treatment was:
1) Control (saline), gavage, the dose 25 ml/kg, 14 days;
3) Compound 9, gavage, the dose 10 mg/kg, 14 days;
Regrouped according to tumor size on the 13th day after inoculation, the animals of which tumor size is too large and too small were eliminated, the average tumor volume of each group are basically the same. Administration was carried out according to the above regimen; the dosing volume was 0.5 ml/20 g body weight. The axis (a), shorter diameter (b) of tumor was measured 2 times a week with an electronic digital caliper, calculate formula of tumor volume (tumor volume, TV) is as follows: TV=1/2×a×b2, calculate formula of relative tumor volume (relative tumor volume, RTV), is as follows: RTV=Vt/Vo, wherein Vo is the tumor volume measured at the time when dividing cages (i.e. dl), Vt is the tumor volume measured each time. […] T test was conducted. Animals were sacrificed 30 days after inoculation, dissected and the tumor mass were taken, tumor weight was measured.

[21] = Solubility test in buffer solution at pH=1; assay type: physicochemical; conditions: pH=1 buffer solution, simulated gastric fluid, thermodynamic from solid; buffer solution pH=1
Method: Compound 9 1.02 mg was precisely weighed and placed in 1.5 mL of EP tube, and 10 uL pH=1 buffer solution was added, vortexed for 30S and ultrasonic for 20 min. There was a lot of visible turbidity after that.
20 uL buffer was added and ultrasounded and the solution was found still turbid. Turbidity reduced after the solution was diluted to 1 mL and vortexed, while there still exist residual after diluted to 2 mL.

[22] = on the 60 kinds of tumor cells, read-out: Average GI50

IC50 [1] [µg/mL] | IC50 [2] [nM] | IC50 [3] [nM] | IC50 [4] [nM] | IC50 [5] [µg/mL] | melting point [°C] | IC50 [7] [µg/mL] | IC50 [8] [nM] | IC50 [10] [nM] | Compound | GI50 [11] [nM] | GI50 [12] [nM] | GI50 [13] [nM] | GI50 [14] [nM] | GI50 [15] [nM] | GI50 [16] [nM] | in vitro proliferation inhibition (in words) [17] | GI50 [18] [nM] | GI50 [19, 22] [nM] | also measured
0.475 (≈ 0.961 µM) | 0.47 | 0.55 | 3.6 | 0.00819 (≈ 0.0166 µM) | 123 to 124 | 0.011 (≈ 0.0222 µM) | 2.6 | 1.1 | COc1ncc(-c2ccc3nccc(-n4cncn4)c3c2)cc1NS(=O)(=O)c1ccc(F)cc1F [Compound 1, N-(5-(4-(1H-1,2,4-triazole-1-yl)quinolin-6-yl)-2-methoxypyridine-3-yl)-2,4-difluorobenzenesulfonamide] | – | – | – | – | – | – | – | – | – | IC50 [6]: 0.454 µg/mL (≈ 0.918 µM); IC50 [9]: 1.37 µg/mL (≈ 2.77 µM)
0.129 (≈ 0.221 µM) | 0.74 | 0.65 | 1.7 | 0.00927 (≈ 0.0159 µM) | 121 to 123 | 0.00507 (≈ 0.00867 µM) | 2.8 | 1.1 | COc1ncc(-c2ccc3nccc(-c4ccc(Cn5cncn5)cc4)c3c2)cc1NS(=O)(=O)c1ccc(F)cc1F [Compound 10, N-(5-(4-(4-((1H-1,2,4-triazole-1-yl)methyl)phenyl)quinolin-6-yl)-2-methoxypyridine-3-yl)-2,4-difluorobenzenesulfonamide] | < 10 | < 10 | < 10 | < 10 | < 10 | < 10 | high in vitro proliferation inhibition | < 10 | 15.1 | GI50 ([19]; on the 36 tumor cell lines, read-out: average half growth inhibitory concentration (GI50)): < 10 nM
0.092 (≈ 0.156 µM) | 1.1 | 0.59 | 1.1 | 0.012 (≈ 0.0203 µM) | 84 to 85 | 0.0028 (≈ 0.00474 µM) | 3.4 | 2.2 | COc1ncc(-c2ccc3nccc(-c4ccc(CN(C)CCO)cc4)c3c2)cc1NS(=O)(=O)c1ccc(F)cc1F [Compound 17, N-(5-(4-(4-(((2-hydroxyethyl)(methyl)amino)methyl)phenyl)quinolin-6-yl)-2-methoxypyridine-3-yl)-2,4-difluorobenzenesulfonamide] | < 10 | < 10 | < 10 | < 10 | < 10 | < 10 | high in vitro proliferation inhibition | < 10 | 15.8 | GI50 ([19]; on the 38 tumor cell lines, read-out: average half growth inhibitory concentration (GI50)): < 10 nM
0.537 (≈ 1.06 µM) | 0.61 | – | – | 0.014 (≈ 0.0277 µM) | – | – | – | – | COc1ncc(-c2ccc3nccc(-c4ccnnc4)c3c2)cc1NS(=O)(=O)c1ccc(F)cc1F [GSK2126458, reference compound] | – | – | – | – | – | – | – | – | – | Tumor Inhibition rate % [20]: 65.93%; Animal wight (g) (tumor removed) ([20]; at end): 21.41 ± 1.49 g; RTV (d18) x ± SD ([20]; d18): 6.91 ± 1.97; solubility at 20 min [21]: 200 µg/mL (≈ 396 µM)
